Assay results reported in PMC8398766, “Do Small Molecules Activate the TrkB Receptor in the Same Manner as BDNF? Limitations of Published TrkB Low Molecular Agonists and Screening for Novel TrkB Orthosteric Agonists” (Pharmaceuticals, 2021).
“Also recorded” adds a separate entry of the source.

What was measured:
[1] = tested on: TrkB and downstream proteins (PLCγ1, Akt1, ERK1/2); experiment: Downstream signaling immunoblot, SN56 T48 cell line; assay type: cell-based; conditions: for Phosphorylation of TrkB and downstream proteins (PLCγ1, Akt1, ERK1/2): compounds up to 100 μM, BDNF up to 100 ng/mL, 15 min
Protocol: The SN56 T48 cell line with stable overexpression of the TrkB receptor was purchased from Emory University (Atlanta, GA, USA) and cultivated according to the protocol described in Jang et al., 2010 [12]. The cell lines were cultivated with the following reagents: DMEM High Glucose, fetal bovine serum (FBS), Penicillin-Streptomycin Solution 100×, and Trypsin-EDTA 1×; all were purchased from Biowest, and G418 was from ThermoFisher Scientific. For the ELFI experiments, cells were seeded (8000/well) on a PDL-treated 96-well plate (BioCoat™, Corning Inc., Corning, NY, USA) and 6-well plate (400,000/well) for lysate collection and immunoblot analysis.
(§1) On the day of the experiments, cells were starved for 5 h with appropriate culture medium. SN56 T48 cells were treated with reference compounds at 100 μM or 1, 10, or 100 μM concentrations of the selected molecules, and 1, 10, and 100 ng/mL of BDNF. Differentiated SH-SY5Y cells were treated with 1, 10, or 100 μM concentrations of the tested molecules and 1, 10, and 100 ng/mL of BDNF for 15 min. For compound specificity, the evaluation cell lines were first pretreated with 1 μM K252a (MilliporeSigma, Saint Louis, MO, USA) for 15 min and then cotreated with 100 μM concentrations of the tested molecules.
(§2) Compound treatment was stopped by lysing cells with N-PER™ Neuronal Protein Extraction Reagent (Thermo Fisher Scientific) containing 1 × PhosSTOP™ (Roche, Basel, Switzerland), 1 × Halt Protease Inhibitor Single-Use Cocktail (ThermoFisher Scientific) and 5 mM EDTA. The lysates were collected by scraping, and centrifuged (8000× g; 10 min at 4 °C), and the protein concentration was determined using a BCA Pierce kit (ThermoFisher Scientific). The lysates were stored at −80 °C until further processing. Samples containing 20 μg of protein were further denatured in 4 × Laemli Buffer with 5% β-mercaptoethanol at 95 °C for 5 min and electrophoresed on gels prepared using a 10% TGX Stain-Free™ FastCast™ Acrylamide Kit (Bio-Rad). Afterwards, the proteins were transferred (wet transfer, 100 V, 60 min) onto nitrocellulose membranes (GE Healthcare, Chicago, IL, USA), which were blocked in 5% BSA in TBS-T (TBS + 0.1% Tween20) for 2 h. […] After repeated washes (TBS-T), the proteins were detected with HRP-conjugated anti-rabbit antibodies (1:4000, RT, 2 h) (Cell Signaling Technology), and the blots were incubated with Clarity Max ECL Western Blotting Substrate (Bio-Rad). Blot images and chemiluminescence signals were captured using a ChemiDoc MP Imaging System, and densitometry values were calculated using the Image Lab software (Bio-Rad). […]

[2] = tested on: TrkB and downstream proteins (PLCγ1, Akt1, ERK1/2); experiment: Downstream signaling immunoblot, RA-differentiated SH-SY5Y cell line; assay type: cell-based; conditions: for Phosphorylation of TrkB and downstream proteins (PLCγ1, Akt1, ERK1/2): RA-differentiated SH-SY5Y, 1, 10, 100 μM, 15 min
Protocol: The SH-SY5Y cell line was purchased from MilliporeSigma and cultured in growth medium: MEM (w/Earle’s Salts; w/L-Glutamine) + Ham’s F12 (w/L-Glutamine) (1:1 v/v), 1 × Antibiotic-Antimycotic, 1 × MEM Non-Essential Amino Acids (all reagents from Biowest, Riverside, MO, USA) and 15% FBS (Gibco, Thermo Fisher Scientific, Waltham, MA, USA). Cells were passaged using 0.25% Trypsin-EDTA (Biowest) and cultured in standard conditions (5% CO2, 37 °C with 95% relative humidity).
To differentiate SH-SY5Y, cells were seeded in a cell culture flask at a density of 10,000 cells/cm^2 in standard growth medium containing 10 μM retinoic acid (RA; MilliporeSigma) and cultured for 7 consecutive days. Then, differentiated cells were harvested by trypsinization (Trypsin-EDTA 1×, 3 min at 37 °C), centrifuged (250× g; 5 min at 25 °C) and counted. The desired experiment cells were seeded in differentiation medium (MEM:Ham’s F12 growth medium +10 μM RA) in multi-well plates at the following densities: 1,000,000 cells/well on a 6-well plate for lysate collection and immunoblot analysis, and 12,000 cells/well into a PDL-treated 96-well plate (BioCoat™, Corning Inc.) for neuroprotection experiments.
as §1, §2

Row | Molecule | Phosphorylation of TrkB and downstream proteins (PLCγ1, Akt1, ERK1/2) [1] | Phosphorylation of TrkB and downstream proteins (PLCγ1, Akt1, ERK1/2) [2] | Activation of downstream proteins (Akt1 and ERK1/2) after inhibition of TrkB kinase by K252a ([1]; K252a 1 μM 15 min before 100 μM compound) | Effect of cotreatment with K252a on the compound's effects ([2]; K252a 1 μM)
1 | O=c1cc(-c2ccccc2)oc2c(O)c(O)ccc12 [7,8-DHF, 7,8-dihydroxyflavone] | did not induce; also recorded: lack of 7,8-DHF activity | did not result in the expected effect; also recorded: lack of 7,8-DHF activity |  | 
2 | O=C1C(O)=C(c2c[nH]c3ccccc23)C(=O)C(O)=C1c1c[nH]c2ccccc12 [CPL503052, didemethylasterriquinone D] | demonstrated the activation of the TrkB receptor and phosphorylation of relevant downstream proteins | able to induce the phosphorylation of TrkB, Akt1, ERK1/2, and PLCγ1 | did not repress | 
3 | C=CC(C)(C)c1[nH]c2ccccc2c1C1=C(O)C(=O)C(c2c[nH]c3c(CC=C(C)C)cccc23)=C(O)C1=O [DMAQ-B1] |  | able to induce the phosphorylation of TrkB, Akt1, ERK1/2, and PLCγ1 |  | did not inhibit
4 | BDNF: Brain-derived neurotrophic factor, endogenous TrkB receptor agonist (protein, UniProt P23560 19-247, looked up) Neurotrophic factor BDNF …: APMKEANIRGQGGLAYPGVRTHGTLESVNGPKAGSRGLTSLADTFEHVIEELLDEDQKVRPNEENNKDADLYTSRVMLSSQVPLEPPLLFLLEEYKNYLDAANMSMRVRRHSDPARRGELSVCDSISEWVTAADKKTAVDMSGGTVTVLEKVPVSKGQLKQYFYETKCNPMGYTKEGCRGIDKRHWNSQCRTTQSYVRALTMDSKKRIGWRFIRIDTSCVCTLTIKRGR | significantly increased phosphorylation | induced the TrkB receptor and phosphorylation of downstream proteins |  | 
